ChEMBL document CHEMBL5046267, “Discovery of N-Trisubstituted Pyrimidine Derivatives as Type I RET and RET Gatekeeper Mutant Inhibitors with a Novel Kinase Binding Pose” (J Med Chem, 2022)
The source made the active and inactive calls. The calls are words filed in the database; no cut-off is given here.

Legend:
HEK293T [1] = assay: Inhibition of autophosphorylation of NCOA4-RET V804M mutant (unknown origin) transfected HEK293T cells assessed as inhibition of autophosphorylation of RET at 100 to 2500 nM measured after 2 hrs by Western blotting analysis; format: cell-based; conditions: Homo sapiens, dose 100-2500 nM
HEK293T [2] = assay: Inhibition of autophosphorylation of human NCOA4-RET G810R mutant transfected HEK293T cells assessed as inhibition of autophosphorylation of RET at 100 to 2500 nM measured after 2 hrs by Western blotting analysis; format: cell-based; conditions: dose 100-2500 nM

| Compound | inhibition (HEK293T [1]) | inhibition (HEK293T [2]) |
| --- | --- | --- |
| Cc1cc(Nc2cc(N3CCN(C)CC3)nc(Nc3ccc(CC(=O)Nc4cccc(F)c4)cc3)n2)[nH]n1 | Active | inactive |
| CCN1CCN(c2cc(Nc3cc(C)n[nH]3)nc(Nc3ccc(CC(=O)NCc4cccc(F)c4)cc3)n2)CC1 | Active | inactive |
| Cc1cc(Nc2cc(N3CCN(C)CC3)nc(Nc3ccc(CC(=O)Nc4ccc(C(C)C)cc4)cc3)n2)[nH]n1 | Active | inactive |
| Cc1cc(Nc2cc(N3CCN(C)CC3)nc(Nc3ccc(CC(=O)Nc4ccc(F)cc4)cc3)n2)[nH]n1 | Active | inactive |
